According to patent publication US4206224A, “Treatment of infections” (Beecham Group Limited, priority 1976, dated 1980):
≈ marks a conversion by molar mass, not a printed value. Entries after “also recorded” stand apart in the source; their conditions may differ. Where a name gives a salt, the structure may show the parent alone.

Tests used:
streptococci = assay: Antibacterial spectrum, streptococci; type: cell-based; conditions: most streptococci
Streptococcus faecalis = assay: Antibacterial spectrum (MIC), Streptococcus faecalis; type: cell-based; conditions: Enterococcus faecalis
Streptococcus pneumoniae = assay: Antibacterial spectrum (MIC), Streptococcus pneumoniae; type: cell-based
[1] = Blood and urinary excretion levels, dog; type: in vivo; conditions: 100 mg/kg; for Cmax: blood, read-out: Peak Level (blood); for dose excreted: urine, read-out: Urinary Recovery
From the text: (§1) The results of administering pseudomonic acid to four different animal species are shown in Table 2 in terms of peak blood levels and urinary recovery.

Neisseria meningitidis = assay: Antibacterial spectrum (MIC), Neisseria meningitidis; type: cell-based
M. pulmonis 'JB' [2] = assay: M. pulmonis-induced arthritis of mice; conditions: for Number of mice with arthritis/total number mice: 200 mg/kg × 5 s.c.; for prevented the development of arthritis: 200 mg/kg s.c. daily, five consecutive days
Gram-negative bacilli = assay: Antibacterial spectrum (MIC), Gram-negative bacilli
Toxicity (LD50), rat = type: in vivo; conditions: for LD50: in vivo
Mycoplasma species = assay: Antibacterial spectrum (MIC), Mycoplasma species
Staphylococcus aureus = assay: Antibacterial spectrum (MIC), Staphylococcus aureus; type: cell-based
Haemophilus influenzae = assay: Antibacterial spectrum (MIC), Haemophilus influenzae; type: cell-based
Neisseria gonorrhoeae = assay: Antibacterial spectrum (MIC), Neisseria gonorrhoeae; type: cell-based
Streptococcus pyogenes = assay: Antibacterial spectrum (MIC), Streptococcus pyogenes; type: cell-based
M. synoviae ATCC 25204 = assay: M. synoviae-induced airsacculitis of chicken; type: in vivo, chicken (white leghorn chicks) infected with M. synoviae
Experimental: 3. M. synoviae-induced airsacculitis of chicken 0.5 ml volumes of a broth culture containing about 10^8 CFU of M. synoviae ATCC No. 25204 were injected into the left abdominal air sacs of groups of five, one week old, specific pathogen free (SPF) white leghorn chicks. […] Seven days after infection the chicks were autopsied and the air sacs were examined macroscopically for mycoplasmal lesions and microbiologically for the presence of M. synoviae.

[3] = Blood and urinary excretion levels, rat; type: in vivo; conditions: 100 mg/kg; for Cmax: blood, read-out: Peak Level (blood); for dose excreted: urine, read-out: Urinary Recovery
From the text: as §1

[4] = system: Staphylococcus epidermidis; assay: Antibacterial spectrum (MIC), Staphylococcus epidermidis; type: cell-based
Toxicity (LD50), mouse = type: in vivo; conditions: for LD50: in vivo
[5] = Blood and urinary excretion levels, mouse; type: in vivo; conditions: 50 mg/kg; for Cmax: blood, read-out: Peak Level (blood); for dose excreted: urine, read-out: Urinary Recovery
From the text: as §1

staphylococci = assay: Antibacterial spectrum, staphylococci; type: cell-based
[6] = system: Bordetella bronchiseptica; assay: Antibacterial activity, Bordetella bronchiseptica; type: cell-based
Pasteurella multocida = assay: Antibacterial activity, Pasteurella multocida; type: cell-based
[7] = Blood and urinary excretion levels, squirrel monkey; type: in vivo; conditions: 100 mg/kg; for Cmax: blood, read-out: Peak Level (blood); for dose excreted: urine, read-out: Urinary Recovery
From the text: as §1

M. pulmonis 'JB' [8] = assay: Antimycoplasmal MIC, metabolic-inhibition test, M. pulmonis 'JB'; type: cell-based; conditions: Mycoplasmopsis pulmonis, 168 h, dilutions 250-0.5 μg/ml, 37° C., seven days, read-out: MIC (in vitro antimycoplasmal activity)
M. dispar H225 = assay: Antimycoplasmal MIC, metabolic-inhibition test, M. dispar H225; type: cell-based; conditions: 168 h, dilutions 250-0.5 μg/ml, 37° C., seven days, read-out: MIC (in vitro antimycoplasmal activity)
M. pneumoniae 427 a = assay: Antimycoplasmal MIC, metabolic-inhibition test, M. pneumoniae 427 a; type: cell-based; conditions: Mycoplasmoides pneumoniae, 168 h, dilutions 250-0.5 μg/ml, 37° C., seven days, read-out: MIC (in vitro antimycoplasmal activity)
M. bovis 25025 = assay: microbe, parasite or virus in culture; type: cell-based; conditions: 25025, 168 h, read-out: MIC (in vitro antimycoplasmal activity)
M. suipneumoniae (Laber) = assay: Antimycoplasmal MIC, metabolic-inhibition test, M. suipneumoniae (Laber); type: cell-based; conditions: Mesomycoplasma hyopneumoniae, 168 h, dilutions 250-0.5 μg/ml, 37° C., seven days, read-out: MIC (in vitro antimycoplasmal activity)
M. gallisepticum S6 = assay: Antimycoplasmal MIC, metabolic-inhibition test, M. gallisepticum S6; type: cell-based; conditions: Mycoplasmoides gallisepticum, 168 h, dilutions 250-0.5 μg/ml, 37° C., seven days, read-out: MIC (in vitro antimycoplasmal activity)
[9] = system: mycoplasmas from human and veterinary sources; assay: Antimycoplasmal activity in vitro, overall; type: cell-based
Experimental: 1. The minimal inhibitory concentrations (MIC) of pseudomonic acid and methyl pseudomonate were determined in Microtitre plates, by a modification of the metabolic-inhibition test (Taylor-Robinson, 1967). The compounds were serially diluted in sterile de-ionised water to give a range of concentrations from 250-0.5 μg/ml. Mycoplasma broth containing 1% (w/v) of glucose and 0.005% (w/v) of phenon red, was added at a strength to compensate for its dilution by the aqueous drug solution. Approximately 10^4 colony forming units of mycoplasma were added to each concentration of drug. Drug-free infected, noninfected and pH control wells were included on each plate. Plates were sealed with cellotape and incubated at 37° C. for seven days. The MIC was the lowest concentration of compound that prevented a colour change in the mycoplasma broth, caused by the metabolism of glucose by the mycoplasmas.

M. synoviae 25204 = assay: Antimycoplasmal MIC, metabolic-inhibition test, M. synoviae 25204; type: cell-based; conditions: Mycoplasmopsis synoviae, 168 h, dilutions 250-0.5 μg/ml, 37° C., seven days, read-out: MIC (in vitro antimycoplasmal activity)
M. fermentans MW KL 4 = assay: Antimycoplasmal MIC, metabolic-inhibition test, M. fermentans MW KL 4; type: cell-based; conditions: Mycoplasmopsis fermentans, MWKL4, 168 h, dilutions 250-0.5 μg/ml, 37° C., seven days, read-out: MIC (in vitro antimycoplasmal activity)

C/C(=C\C(=O)OCCCCCCCCC(=O)O)C[C@@H]1OC[C@H](C[C@@H]2O[C@H]2[C@@H](C)[C@H](C)O)[C@@H](O)[C@H]1O [Pseudomonic acid]
antibacterial activity (in words) (streptococci): good activity
MIC (Streptococcus faecalis): 50 µg/mL (≈ 99.9 µM)
MIC (Streptococcus pneumoniae): 0.12 µg/mL (≈ 0.24 µM)
Cmax ([1]; im): 25300 ng/mL
Cmax ([1]; po): 3600 ng/mL
dose excreted ([1]; im): 1%
dose excreted ([1]; po): < 1%
MIC (Neisseria meningitidis): 0.02 µg/mL (≈ 0.0399 µM)
Number of mice with arthritis/total number mice (M. pulmonis 'JB' [2]; Expt 1, day 3 after infection): 0/6
Number of mice with arthritis/total number mice (M. pulmonis 'JB' [2]; Expt 1, day 7 after infection): 1/5
Number of mice with arthritis/total number mice (M. pulmonis 'JB' [2]; Expt 1, day 10 after infection): 1/5
Number of mice with arthritis/total number mice (M. pulmonis 'JB' [2]; Expt 1, day 14 after infection): 1/5
Number of mice with arthritis/total number mice (M. pulmonis 'JB' [2]; Expt 2, day 3 after infection): 0/8
Number of mice with arthritis/total number mice (M. pulmonis 'JB' [2]; Expt 2, day 8 after infection): 2/8
Number of mice with arthritis/total number mice (M. pulmonis 'JB' [2]; Expt 2, day 10 after infection): 2/8
Number of mice with arthritis/total number mice (M. pulmonis 'JB' [2]; Expt 2, day 14 after infection): 4/8
prevented the development of arthritis (M. pulmonis 'JB' [2]; first experiment): four out of five mice
activity in vivo in experimentally induced mycoplasmal infection (in words) (M. pulmonis 'JB' [2]; mice): active in vivo
prevented the development of arthritis (M. pulmonis 'JB' [2]; second experiment): four out of eight mice
antibacterial activity (in words) (Gram-negative bacilli): relatively inactive
LD50 (Toxicity (LD50), rat; iv): 1310 to 2560 mg/kg
LD50 (Toxicity (LD50), rat; po): 5000 mg/kg
LD50 (Toxicity (LD50), rat; sc): 5000 mg/kg
toxicity (in words) (Toxicity (LD50), rat; three routes): low degree of toxicity
antimycoplasmal activity / sensitivity (in words) (Mycoplasma species; Mycoplasma sp, b37: most mycoplasma species): very sensitive; also recorded: particularly high activity
MIC (Mycoplasma species; Mycoplasma species): <0.01 to 25 µg/mL
MIC (Staphylococcus aureus): 0.25 µg/mL (≈ 0.499 µM)
MIC (Haemophilus influenzae): 0.12 µg/mL (≈ 0.24 µM)
antibacterial activity / susceptibility (in words) (Haemophilus influenzae; including strains resistant to other antibiotics): very susceptible; also recorded: particularly high activity
MIC (Neisseria gonorrhoeae; Neisseria gonorrhoeae): 0.01 µg/mL (≈ 0.02 µM)
antibacterial activity / susceptibility (in words) (Neisseria gonorrhoeae; Neisseria gonorrhoeae (gonococci), including strains resistant to other antibiotics): very susceptible; also recorded: particularly high activity
MIC (Streptococcus pyogenes): 0.25 µg/mL (≈ 0.499 µM)
prevented the development of airsac lesions (M. synoviae ATCC 25204; 200 mg/kg i.m. twice per day): four out of five birds
re-isolation of M. synoviae from airsacs (in words) (M. synoviae ATCC 25204; 200 mg/kg i.m. twice per day): not re-isolated from the airsacs of any
Number birds protected/total (M. synoviae ATCC 25204; 200 mg/kg × 7 i.m., autopsy seven days after infection): 4/5
Number of birds from which M. synoviae was re-isolated (M. synoviae ATCC 25204; 200 mg/kg × 7 i.m., seven days after infection): 0
activity in vivo in experimentally induced mycoplasmal infection (in words) (M. synoviae ATCC 25204; chicken): active in vivo
Cmax ([3]; im): 15800 ng/mL
Cmax ([3]; iv): 66700 ng/mL
dose excreted ([3]; im): < 1%
dose excreted ([3]; iv): < 1%
MIC [4]: 0.25 µg/mL (≈ 0.499 µM)
LD50 (Toxicity (LD50), mouse; iv): 1640 to 2050 mg/kg
LD50 (Toxicity (LD50), mouse; p.c. (so in the source)): 5000 mg/kg
LD50 (Toxicity (LD50), mouse; sc): 4000 to 5000 mg/kg
toxicity (in words) (Toxicity (LD50), mouse; three routes): low degree of toxicity
Cmax ([5]; po): < 1000 ng/mL
Cmax ([5]; sc): 7200 ng/mL
dose excreted ([5]; po): < 1%
dose excreted ([5]; sc): < 1%
antibacterial activity (in words) (staphylococci): good activity
antibacterial activity (in words) [6]: has activity
antibacterial activity (in words) (Pasteurella multocida): has activity
Cmax ([7]; im): 40000 ng/mL
Cmax ([7]; po): 26800 ng/mL
dose excreted ([7]; im): 2%
dose excreted ([7]; po): 1.5%

C/C(=C\C(=O)OCCCCCCCCC(=O)O)C[C@@H]1OC[C@H](C[C@@H]2O[C@H]2[C@@H](C)[C@H](C)O)[C@@H](O)[C@H]1O [Pseudomonic acid (Na salt)]
MIC (M. pulmonis 'JB' [8]): < 0.5 µg/mL
MIC (M. dispar H225): < 0.5 µg/mL
MIC (M. pneumoniae 427 a): < 0.5 µg/mL
MIC (M. bovis 25025): < 0.5 µg/mL
MIC (M. suipneumoniae (Laber)): 1.9 to 3.9 µg/mL
MIC (M. gallisepticum S6): 7.8 µg/mL
antimycoplasmal activity in vitro (in words) [9]: good antimycoplasmal activity in vitro
MIC (M. synoviae 25204): < 0.5 µg/mL
MIC (M. fermentans MW KL 4): < 0.5 µg/mL

COC(=O)CCCCCCCCOC(=O)/C=C(\C)C[C@@H]1OC[C@H](C[C@@H]2O[C@H]2[C@@H](C)[C@H](C)O)[C@@H](O)[C@H]1O [methyl pseudomonate]
MIC (M. pulmonis 'JB' [8]): < 0.5 µg/mL
MIC (M. dispar H225): < 0.5 µg/mL
MIC (M. pneumoniae 427 a): 7.8 µg/mL (≈ 15.2 µM)
MIC (M. bovis 25025): < 0.5 µg/mL
MIC (M. suipneumoniae (Laber)): 7.8 µg/mL (≈ 15.2 µM)
MIC (M. gallisepticum S6): 15.6 µg/mL (≈ 30.3 µM)
antimycoplasmal activity in vitro (in words) [9]: good antimycoplasmal activity in vitro
MIC (M. synoviae 25204): < 0.5 µg/mL
MIC (M. fermentans MW KL 4): < 0.5 µg/mL
